# Reference: PMC7887271, “Fast acting allosteric phosphofructokinase inhibitors block trypanosome glycolysis and cure acute African trypanosomiasis in mice” (Nature Communications, 2021)
# “And” between values parts separate entries of the source, which are not always exact repeats. Identical values can stand only once. Like-named read-outs stand apart in the source and are kept apart here.
# Tests used:
# [1] = system: bloodstream form of T. brucei strain Lister 427; assay: T. b. brucei 427 growth inhibition assay (LILiT, Alamar Blue); format: cell-based; settings: Trypanosoma brucei
# Protocol: The ‘in vitro’ parasite killing assay used the BSF of the non-human pathogenic subspecies T. b. brucei, strain Lister 427, cultured in HMI-9 medium containing 10% foetal bovine serum. A second cell line, T. b. brucei GVR35-Luc2 which constitutively expresses firefly luciferase was grown in Modified HMI-9 plus 20% foetal calf serum supplemented with 20% Serum Plus (Sigma) and 0.15 μg mL^−1 puromycin. Both strains of trypanosomes were cultured in T-25 vented cap flasks at 37 °C and 5% CO2.
# The ‘in vitro’ parasite killing assay used the bloodstream-form of the non-human pathogenic subspecies T. b. brucei, strain Lister 427 (a gift from Professor Keith Matthews) which was cultured in HMI-9 medium containing 10% fetal bovine serum (FBS). A second cell line, T. b. brucei GVR35-Luc2 which constitutively expresses firefly luciferase (5) was grown in Modified HMI-9 plus 20% fetal calf serum (FCS) supplemented with 20% Serum Plus (Sigma) and 0.15 μg/ml puromycin as described previously (5). Both strains of trypanosomes were cultured in T-25 vented cap flasks at 37 °C and 5% CO2.
# Growth inhibition tests of bloodstream-form T. b. brucei Lister 427 were carried out using the LILiT (long incubation low inoculation test) method (6). The parasites were cultured in complete HMI-9 medium containing 10% FBS in 96-well plates (Greiner Inc.) with approximately 2500 trypanosomes per well. A 3-fold dilution series (in the range from 45 µM – 0.020 µM) of the inhibitor compounds were prepared in the plate; the maximal concentration of DMSO was 0.45%. After 72 hours of incubation at 37 °C and 5% CO2, 50 µl Alamar Blue (0.2% diluted with Dulbecco’s-phosphate buffered saline (D-PBS, Sigma) was added to each well and plates were incubated at 37 °C and 5% CO2 for 4 hours. Fluorescence was read on the BMG multiplate reader using an excitation wavelength of 530 nm and an emission wavelength of 590 nm.
# [2] = Pharmacokinetic studies in mice (IV and PO); format: in vivo, female CD-1 mice; settings: mouse (female, CD-1)
# Protocol: PK parameters for the lead compounds were determined using three mice per data point (Supplementary Methods 6.1).
# Blood samples were collected from terminal cardiac puncture at 0.08 (IV only), 0.25, 0.5, 1 (PO only), 2, 4, 8 and 24 hour time points. The whole blood was centrifuged to obtain plasma. Brains were also collected following cardiac perfusion from both sets of animals at 2 hours. Analysis of the biological samples was carried out by the company Selcia. Plasma proteins were precipitated by addition of PBS (1 volume) followed by 3 volumes of acetonitrile containing internal standard (verapamil). Following filtration through a protein precipitation plate the eluent was dried under nitrogen and re-suspended in mobile phase prior to analysis. Individual brains were homogenised in PBS and diluted to 10% w/v and divided into aliquots consisting of brain homogenate (1 volume, 0.3 ml) and 3 volumes (0.9 ml) of acetonitrile containing internal standard. Samples were centrifuged and supernatants removed and taken through a protein precipitation plate alongside an appropriate standard. Eluents were dried under nitrogen and re-suspended in mobile phase prior to analysis. Eluents were analysed by LC-MS/MS using a Phenomenex Gemini NX column (C18,30 x 2.1 mm, 3 micron). Analysis of the data was carried out using PK solutions software.
smiles,measurement,setting,value
"CN(C)CCn1ccc2c(ccn2Cc2ccc(Cl)c(Cl)c2)c1=O [CTCB-405, 1-[(3,4-Dichlorophenyl)methyl]-5-[2-(dimethylamino)ethyl] pyrrolo[3,2-c]pyridin-4-one]",EC50,"[1]; 72 h, Alamar Blue, read-out: EC50 (µM) in vitro parasite killing of bloodstream form T. brucei Lister 427 (Tbb EC50)",0.37 ± 0.04 µM
same,EC50,"[1]; Glycerol 0 mM, read-out: EC50",0.27 µM
same,EC50,"[1]; Glycerol 0.75 mM, read-out: EC50",0.33 µM
same,EC50,"[1]; Glycerol 5.0 mM, read-out: EC50",0.45 µM
same,EC50,"[1]; Glycerol […], read-out: EC50",0.32 µM
same,"Plasma concentration, individual animal","[2]; 1 mg/kg IV bolus, 0.08 h",0.415 µM and 0.386 µM and 140.6 ng/ml and 135.9 ng/ml
same,"Plasma concentration, individual animal","[2]; 1 mg/kg IV bolus, 0.25 h",0.37 µM and 0.489 µM and 178.1 ng/ml and 108.2 ng/ml
same,"Plasma concentration, individual animal","[2]; 1 mg/kg IV bolus, 0.5 h",0.118 µM and 0.159 µM and 57.9 ng/ml and 49.5 ng/ml
same,"Plasma concentration, individual animal","[2]; 1 mg/kg IV bolus, 2 h",0.049 µM and 0.069 µM and 0.109 µM and 25.1 ng/ml and 39.7 ng/ml and 17.8 ng/ml
same,"Plasma concentration, individual animal","[2]; 1 mg/kg IV bolus, 4 h",0.042 µM and 0.015 µM and 0.019 µM and 5.5 ng/ml and 6.9 ng/ml and 15.3 ng/ml
same,"Plasma concentration, individual animal","[2]; 1 mg/kg IV bolus, 8 h",0.011 µM and 4.0 ng/ml
same,"Plasma concentration, individual animal","[2]; 5 mg/kg oral dose (PO), 0.25 h",279.4 ng/ml and 164.7 ng/ml and 0.767 µM and 0.452 µM
same,"Plasma concentration, individual animal","[2]; 5 mg/kg oral dose (PO), 0.5 h",77.6 ng/ml and 126.4 ng/ml and 0.213 µM and 0.347 µM
same,"Plasma concentration, individual animal","[2]; 5 mg/kg oral dose (PO), 1 h",129.3 ng/ml and 229.9 ng/ml and 100.9 ng/ml and 0.355 µM and 0.631 µM and 0.277 µM
same,"Plasma concentration, individual animal","[2]; 5 mg/kg oral dose (PO), 2 h",177.4 ng/ml and 144.3 ng/ml and 303.4 ng/ml and 0.487 µM and 0.396 µM and 0.833 µM
same,"Plasma concentration, individual animal","[2]; 5 mg/kg oral dose (PO), 4 h",88.9 ng/ml and 83.8 ng/ml and 0.244 µM and 0.23 µM
same,"Plasma concentration, individual animal","[2]; 5 mg/kg oral dose (PO), 8 h",9.1 ng/ml and 0.025 µM
same,concentration at 0.08 h,"[2]; female, CD-1, mouse, plasma, intravenous, 1 mg/kg, 1 mg/kg IV bolus, 0.08 h, read-out: Plasma concentration, Mean",143 ng/mL and 391 nM
same,concentration at 0.08 h,"[2]; female, CD-1, mouse, plasma, intravenous, 1 mg/kg, 1 mg/kg IV bolus, 0.08 h, read-out: Plasma concentration, individual animal",373 nM and 151 ng/mL
same,concentration at 0.25 h,"[2]; female, CD-1, mouse, plasma, intravenous, 1 mg/kg, 1 mg/kg IV bolus, 0.25 h, read-out: Plasma concentration, Mean",140 ng/mL and 385 nM
same,concentration at 0.25 h,"[2]; female, CD-1, mouse, plasma, intravenous, 1 mg/kg, 1 mg/kg IV bolus, 0.25 h, read-out: Plasma concentration, individual animal",297 nM and 135 ng/mL
same,concentration at 0.5 h,"[2]; female, CD-1, mouse, plasma, intravenous, 1 mg/kg, 1 mg/kg IV bolus, 0.5 h, read-out: Plasma concentration, Mean",50.1 ng/mL and 138 nM
same,concentration at 0.5 h,"[2]; female, CD-1, mouse, plasma, intravenous, 1 mg/kg, 1 mg/kg IV bolus, 0.5 h, read-out: Plasma concentration, individual animal",136 nM and 43 ng/mL
same,concentration at 2 h,"[2]; female, CD-1, mouse, plasma, intravenous, 1 mg/kg, 1 mg/kg IV bolus, 2 h",27.6 ng/mL and 75.7 nM
same,concentration at 4 h,"[2]; female, CD-1, mouse, plasma, intravenous, 1 mg/kg, 1 mg/kg IV bolus, 4 h, read-out: Plasma concentration, Mean",9.23 ng/mL and 25.3 nM
